Consider four compounds from patent US10160747B2, “Compounds and methods for kinase modulation, and indications therefor” (Plexxikon Inc., priority 2016, dated 2018).

The experiment deals with CSF1R (Homo sapiens, UniProt P07333). The experiment can be described thus: CSF1R 100 ATP 8 pt kinase assay (Table 6). In kind it is biochemical. From the text:
The following Table 6 provides data indicating FLT3 ITD, D835Y and F691L; c-KIT and CSF1R biochemical and/or cell inhibitory activity for exemplary compounds as described herein.

Chain of CSF1R (P07333 20-972, species assumed): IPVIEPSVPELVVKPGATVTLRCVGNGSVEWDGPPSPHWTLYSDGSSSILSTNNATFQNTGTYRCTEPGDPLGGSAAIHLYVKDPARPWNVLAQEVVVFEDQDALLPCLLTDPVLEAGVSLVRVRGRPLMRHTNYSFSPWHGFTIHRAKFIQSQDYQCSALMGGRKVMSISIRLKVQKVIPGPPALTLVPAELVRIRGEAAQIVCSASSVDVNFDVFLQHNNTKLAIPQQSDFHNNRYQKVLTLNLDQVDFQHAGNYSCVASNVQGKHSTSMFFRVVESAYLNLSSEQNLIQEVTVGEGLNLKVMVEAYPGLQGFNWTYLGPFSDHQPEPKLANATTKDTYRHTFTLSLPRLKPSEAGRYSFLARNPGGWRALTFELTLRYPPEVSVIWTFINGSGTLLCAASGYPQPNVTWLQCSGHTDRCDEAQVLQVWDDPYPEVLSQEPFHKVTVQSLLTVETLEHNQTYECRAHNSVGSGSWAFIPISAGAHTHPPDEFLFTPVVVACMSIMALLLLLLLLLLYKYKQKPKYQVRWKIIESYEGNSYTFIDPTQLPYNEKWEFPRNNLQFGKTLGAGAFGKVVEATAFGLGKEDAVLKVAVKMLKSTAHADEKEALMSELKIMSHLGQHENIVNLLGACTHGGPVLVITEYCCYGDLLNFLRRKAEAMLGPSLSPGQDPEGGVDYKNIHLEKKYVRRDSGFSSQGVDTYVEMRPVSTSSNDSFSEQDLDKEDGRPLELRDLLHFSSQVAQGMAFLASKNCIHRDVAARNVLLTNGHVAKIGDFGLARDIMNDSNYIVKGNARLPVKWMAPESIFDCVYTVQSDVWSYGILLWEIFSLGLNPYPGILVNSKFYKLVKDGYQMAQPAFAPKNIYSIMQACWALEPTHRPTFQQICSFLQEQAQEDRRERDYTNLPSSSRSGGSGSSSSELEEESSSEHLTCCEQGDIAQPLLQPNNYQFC

As for `Cc1n[nH]c2ncc(-c3ccc(CC(=O)Nc4cncc(C(F)(F)F)c4)cc3F)cc12` [Compound P-0177, 2-[3-fluoro-4-(3-methyl-1H-pyrazolo[3,4-b]pyridin-5-yl)phenyl]-N-[5-(trifluoromethyl)-3-pyridyl]acetamide], the IC50 fell in the range of 0.0001 to 10 µM.

The compound `Cc1ncc(NC(=O)Cc2cc(F)c(-c3cnc4[nH]nc(C)c4c3)cc2F)cc1C(F)(F)F` [Compound P-0175, 2-(2,5-difluoro-4-(3-methyl-1H-pyrazolo[3,4-b]pyridin-5-yl)phenyl)-N-(6-methyl-5-(trifluoromethyl)pyridin-3-yl)acetamide] yielded an IC50 of 0.0001 to 10 µM.

`COc1ncc(NC(=O)Cc2ccc(-c3cnc4[nH]nc(C)c4c3)c(F)c2)cc1C(F)(F)F` [Compound P-0174, 2-[3-fluoro-4-(3-methyl-1H-pyrazolo[3,4-b]pyridin-5-yl)phenyl]-N-[6-methoxy-5-(trifluoromethyl)-3-pyridyl]acetamide]: the IC50 was 0.0001 to 10 µM.

Compound `Cc1n[nH]c2ncc(-c3cc(F)c(CC(=O)Nc4cncc(C(F)(F)F)c4)cc3F)cc12` [Compound P-0173, 2-[2,5-difluoro-4-(3-methyl-1H-pyrazolo[3,4-b]pyridin-5-yl)phenyl]-N-[5-(trifluoromethyl)-3-pyridyl]acetamide] registered an IC50 of 0.0001 to 10 µM.

What is called IC50 is the concentration that gives 50% inhibition.
